{"source": "patent US8685423B2", "about": "“Controlling mealybugs” (priority 2011, dated 2014)", "test_system": "mealybug, Pseudococcus spp.", "assay": "Field efficacy on mealy bug, small-plot trials on cotton (Trials A, B, C)", "format": "in vivo", "details": "Sulfoxaflor 50 g/ha, Chlorpyrifos 500 g/ha, mixture 50 + 500 g/ha", "protocol": "Field Efficacy on Mealy Bug\nApplications were made to cotton, Gossypium hirsutum, using small-plot efficacy methods. Chemicals were diluted in water and all treatments were applied using a backpack sprayer calibrated to deliver 500 liters of spray per hectare. Experimental plots measured 5 by 10 meters and each treatment was replicated three times in each trial. Prior to treatment, 20 plants that were uniformly infested with mealybug, Pseudococcus spp., were marked in each experimental plot. At the specified intervals after treatment, the severity of mealybug infestation on the marked plants was rated using a 0-4 scale, where 0=no infestation and 4=stunted, blackened plant. The score for each plant in each experimental plot was summed to provide a total severity score for the plot. Data were transformed to percent control relative to the untreated plots, then subjected to analysis of variance, and means were separated using Tukey's HSD (p=0.1). Expected control was calculated using the method of Colby and compared to observed control. See the Table Section for the results of the Field Trials.", "data": [{"smiles": "CCOP(=S)(OCC)Oc1nc(Cl)c(Cl)cc1Cl", "note": "[Chlorpyrifos]", "values": [{"measurement": "% Control", "setting": "Trial A, 3 DAT", "result": 35.64, "unit": "%"}, {"measurement": "% Control", "setting": "Trial A, 7 DAT", "result": 43.34, "unit": "%"}, {"measurement": "% Control", "setting": "Trial A, 11 DAT", "result": 43.60, "unit": "%"}, {"measurement": "% Control", "setting": "Trial B, 3 DAT", "result": 35.23, "unit": "%"}, {"measurement": "% Control", "setting": "Trial B, 7 DAT", "result": 38.80, "unit": "%"}, {"measurement": "% Control", "setting": "Trial B, 11 DAT", "result": 33.51, "unit": "%"}, {"measurement": "% Control", "setting": "Trial B, 14 DAT", "result": 26.89, "unit": "%"}, {"measurement": "% Control", "setting": "Trial C, 4 DAT", "result": 36.44, "unit": "%"}, {"measurement": "% Control", "setting": "Trial C, 8 DAT", "result": 33.37, "unit": "%"}, {"measurement": "% Control", "setting": "Trial C, 11 DAT", "result": 28.24, "unit": "%"}, {"measurement": "% Control", "setting": "Trial C, 14 DAT", "result": 23.03, "unit": "%"}]}, {"smiles": "CC(c1ccc(C(F)(F)F)nc1)S(C)(=O)=NC#N", "note": "(stereo not shown) [Sulfoxaflor]", "values": [{"measurement": "% Control", "setting": "Trial A, 3 DAT", "result": 17.56, "unit": "%"}, {"measurement": "% Control", "setting": "Trial A, 7 DAT", "result": 21.65, "unit": "%"}, {"measurement": "% Control", "setting": "Trial A, 11 DAT", "result": 20.68, "unit": "%"}, {"measurement": "% Control", "setting": "Trial B, 3 DAT", "result": "−2.66", "unit": "%"}, {"measurement": "% Control", "setting": "Trial B, 7 DAT", "result": 7.81, "unit": "%"}, {"measurement": "% Control", "setting": "Trial B, 11 DAT", "result": 7.81, "unit": "%"}, {"measurement": "% Control", "setting": "Trial B, 14 DAT", "result": 5.32, "unit": "%"}, {"measurement": "% Control", "setting": "Trial C, 4 DAT", "result": 7.39, "unit": "%"}, {"measurement": "% Control", "setting": "Trial C, 8 DAT", "result": 9.19, "unit": "%"}, {"measurement": "% Control", "setting": "Trial C, 11 DAT", "result": 4.76, "unit": "%"}, {"measurement": "% Control", "setting": "Trial C, 14 DAT", "result": 2.49, "unit": "%"}]}]}
